Measurements taken from US12396961B2, “Compounds and compositions for intracellular delivery of agents” (ModernaTX, Inc., priority 2015, dated 2025).
One block for each compound: values may come before it.

How the values were obtained:
[1] = test system: luciferase (Luc) mRNA expression; assay: Luc expression (AUC) in CD-1 mice relative to MC3; format: in vivo; conditions: for Lipid/MC3 Luc CD-1 (mice): Luc expression relative to MC3, CD-1 mice; for Liver/Spleen Ratio / Lipid/MC3 AUC: Table 7c; for Lipid/MC3 AUC: AUC relative to MC3
Method: FIG. 15 is a graph summarizing luciferase expression levels at 6 h after administration of nanoparticle compositions containing compounds of the disclosure to CD-1 mice at a dose of 0.5 mpk. Total light flux values were acquired via body luminescent imaging (BLI) 6 h after administration. In this Figure, the numbers 1-7 and 10 refer to the compositions containing Compounds 4-10 and MC3 respectively.
In contrast, hEPO expression in rats induced by administration of nanoparticle composition including compound according to one of formulae (I), (Ia1)-(Ia6), (Ib), (II), (IIa), (III), and (IIIa) was substantially lower than that measured for MC3. […] Table 7c and 7d show additional protein expressions and clearance data from compositions with various compounds disclosed herein as compared to with MC3.

[2] = Particle size and polydispersity index (Zetasizer Nano ZS); format: physicochemical
Excerpt: Nanoparticle compositions may be characterized by a variety of methods. For example, microscopy (e.g., transmission electron microscopy or scanning electron microscopy) may be used to examine the morphology and size distribution of a nanoparticle composition. Dynamic light scattering or potentiometry (e.g., potentiometric titrations) may be used to measure zeta potentials. Dynamic light scattering may also be utilized to determine particle sizes. Instruments such as the Zetasizer Nano ZS (Malvern Instruments Ltd, Malvern, Worcestershire, UK) may also be used to measure multiple characteristics of a nanoparticle composition, such as particle size, polydispersity index, and zeta potential.
A Zetasizer Nano ZS (Malvern Instruments Ltd, Malvern, Worcestershire, UK) can be used to determine the particle size, the polydispersity index (PDI) and the zeta potential of the nanoparticle compositions in 1×PBS in determining particle size and 15 mM PBS in determining zeta potential.

[3] = Table 1, DOPE 40:20:38.5:1.5, Luc mRNA
[4] = Table 1, marked *: lipid:DSPC:Chol:PEG-DMG 50:10:38.5:1.5

PDI [2, 3]: 0.100
SMILES: CCCCCCCCCN(CCCCCCCCC)CCC(=O)N1CCN(C(=O)CCN(CCCCCCCCC)CCN(CCCCCCCCC)CCCCCCCCC)CC1 [Compound 52, 3-(Dinonylamino)-1-(4-(3-((2-(dinonylamino)ethyl)(nonyl)amino)propanoyl)piperazin-1-yl)propan-1-one]
Lipid/MC3 Luc CD-1 (mice) [1]: 7.46

PDI [2, 3]: 0.190
SMILES: CCCCCCCCCN(CCCCCCCCC)CCN(CCCCCCCCC)CCC1CCN(C(=O)CN(CCCCCCCCC)CCCCCCCCC)CC1 [Compound 50, 2-(Dinonylamino)-1-(4-(2-((2-(dinonylamino)ethyl)(nonyl)amino)ethyl)piperidin-1-yl)ethan-1-one]
Lipid/MC3 Luc CD-1 (mice) [1]: 0.01

SMILES: CCCCCCCCCN(CCCCC(=O)OCCCC)CCC1CCN(C(=O)CN(CCCCCCCCC)CCN(CCCCCCCCC)CCCCCCCCC)CC1 [Compound 60, Butyl 5-((2-(1-(N-(2-(dinonylamino)ethyl)-N-nonylglycyl)piperidin-4-yl)ethyl)(nonyl)amino)pentanoate]
Liver/Spleen Ratio [1]: 15 | Lipid/MC3 AUC [1]: 2.00

PDI [2, 3]: 0.099
SMILES: CCCCCCCCCN(CCCCCCCC(=O)OC)CCN(CCCCCCCC(=O)OC)CC(=O)N1CCN(C(=O)CN(CCCCCCCCC)CCCCCCCCC)CC1 [Compound 48, Methyl 8-((2-(4-(dinonylglycyl)piperazin-1-yl)-2-oxoethyl)(2-((8-methoxy-8-oxooctyl)(nonyl)amino)ethyl)amino)octanoate]
Lipid/MC3 Luc CD-1 (mice) [1]: 0.01

PDI [2, 3]: 0.220 | Size (nm) ([2]; Table 1, lipid:DOPE:Chol:PEG-DMG 40:20:38.5:1.5, Luc mRNA, MC3 standard formulation): 99.0 nm
SMILES: CCCCCCCCCCCCN(CCCCCCCCCCCC)CCN(CCCCCCCCCCCC)CC(=O)N1CC2CC1CN2C(=O)CN(CCCCCCCCC)CCCCCCCCC (centres unmarked) [Compound 43, 2-((2-(Didodecylamino)ethyl)(dodecyl)amino)-1-(5-(dinonylglycyl)-2,5-diazabicyclo[2.2.1]heptan-2-yl)ethan-1-one]
Lipid/MC3 Luc CD-1 (mice) [1]: 0.34

PDI [2, 3]: 0.180
SMILES: CCCCCCCCCN(CCCCCCCCC)CCN(CCCCCCCC(=O)OC)CC(=O)N1CCN(C(=O)CN(CCCCCCCCC)CCCCCCCCC)CC1 [Compound 47, Methyl 8-((2-(dinonylamino)ethyl)(2-(4-(dinonylglycyl)piperazin-1-yl)-2-oxoethyl)amino)octanoate]
Lipid/MC3 Luc CD-1 (mice) [1]: 0.22

PDI [2, 3]: 0.160
SMILES: CCCCCCCCCN(CCCCCCCC(=O)OC)CCN(CCCCCCCCC)CC(=O)N1CCN(C(=O)CN(CCCCCCCCC)CCCCCCCCC)CC1 [Compound 46, Methyl 8-((2-((2-(4-(dinonylglycyl)piperazin-1-yl)-2-oxoethyl)(nonyl)amino)ethyl)(nonyl)amino)octanoate]
Lipid/MC3 Luc CD-1 (mice) [1]: 0.46

SMILES: CCCCCCCCCN(CCCC(=O)OCCCCC)CCN(CCCCCCCCC)CC(=O)N1CCN(C(=O)CN(CCCCCCCCC)CCCC(=O)OCCCCC)CC1 [Compound 71, Pentyl 4-(nonyl(2-(4-(N-nonyl-N-(2-(nonyl(4-oxo-4-(pentyloxy)butyl)amino)ethyl)glycyl)piperazin-1-yl)-2-oxoethyl)amino)butanoate]
Liver/Spleen Ratio [1]: 25 | Lipid/MC3 AUC [1]: 1.25

PDI [2, 4]: 0.077
SMILES: CCCCC/C=C\C/C=C\CCCCCCCCN(CCCCCCCC/C=C\C/C=C\CCCCC)CCN(CCCCCCCC/C=C\C/C=C\CCCCC)CCN1CCN(CCN(CCCCCCCCCCCC)CCCCCCCCCCCC)CC1 [Compound 34, N^1-(2-(4-(2-(Didodecylamino)ethyl)piperazin-1-yl)ethyl)-N^1,N^2,N^2-tri((9Z,12Z)-octadeca-9,12-dien-1-yl)ethane-1,2-diamine]

PDI [2, 3]: 0.130
SMILES: CCCCCCCCCCCCCCN(CCCCCCCCCCCCCC)CCN(CCCCCCCCCCCCCC)CCN1CCN(CCN(CCCCCCCCCCCC)CCCCCCCCCCCC)CC1 [Compound 31, N^1-(2-(4-(2-(Didodecylamino)ethyl)piperazin-1-yl)ethyl)-N^1,N^2,N^2 tritetradecylethane-1,2-diamine]

PDI ([2]; Table 20-1): 0.130
SMILES: CCCCCCCCCCCCN(CCO)CCN(CCCCCCCC(=O)OCCCCCCCCC)CCCCCCCC(=O)OCCCCCCCCC [Compound 20-10, Dinonyl 8,8′-((2-(dodecyl(2-hydroxyethyl)amino)ethyl)azanediyl)dioctanoate]

PDI [2, 3]: 0.180
SMILES: CCCCCCCCCCCCN(CCCCCCCCCCCC)CCN1CCN(CCN(CCCCCC)CCN(CCCCCC)CCCCCC)CC1 [Compound 17, N^1-(2-(4-(2-(Didodecylamino)ethyl)piperazin-1-yl)ethyl)-N^1,N^2,N^2-trihexylethane-1,2-diamine]

PDI ([2]; Table 20-1): 0.038
SMILES: CCCCCCCCCCCCCCN(CCO)CCN(CCCCCCCCCCCC)CCCCCCCCCCCC [Compound 20-24, 2-((2-(Didodecylamino)ethyl)(tetradecyl)amino)ethan-1-ol]

PDI ([2]; Table 20-1): 0.092
SMILES: CCCCCCCCCCCCN(CCCCCCCCCCCC)CCN(CCO)CCCCCCCCC [Compound 20-17, 2-((2-(didodecylamino)ethyl)(nonyl)amino)ethan-1-ol]

Size (nm) [2, 4]: 69.0 nm
SMILES: CCCCC/C=C\C/C=C\CCCCCCCCN(CCCCCCCC/C=C\C/C=C\CCCCC)CCN(CCCCCCCC/C=C\C/C=C\CCCCC)CCN1CCNCC1 [Compound 41, N^1,N^1,N^2-Tri((9Z,12Z)-octadeca-9,12-dien-1-yl)-N^2-(2-(piperazin-1-yl)ethyl)ethane-1,2-diamine]

PDI ([2]; Table 20-1): 0.130
SMILES: CCCCCCCCCCCCN(CCCCCCCCCCCC)CCN(CCO)CCCCCCCC(=O)OC(CCCCCCCC)CCCCCCCC [Compound 20-9, Heptadecan-9-yl 8-((2-(didodecylamino)ethyl)(2-hydroxyethyl)amino)octanoate]

SMILES: CCCCCCCCCN(CCCCCC(=O)OCCC)CCC1CCN(C(=O)CN(CCCCCCCCC)CCN(CCCCCCCCC)CCCCCCCCC)CC1 [Compound 59, Propyl 6-((2-(1-(N-(2-(dinonylamino)ethyl)-N-nonylglycyl)piperidin-4-yl)ethyl)(nonyl)amino)hexanoate]
Liver/Spleen Ratio [1]: 5 | Lipid/MC3 AUC [1]: 0.84

SMILES: CCCCCCCCCN(CCCCCCCCC)CCN(CCCCCCCCC)CC(=O)N1CCN(C(=O)CN(CCCCCCCCC)CCCCCC(=O)OCCC)CC1 [Compound 54, Propyl 6-((2-(4-(N-(2-(dinonylamino)ethyl)-N-nonylglycyl)piperazin-1-yl)-2-oxoethyl)(nonyl)amino)hexanoate]
Liver/Spleen Ratio [1]: 32 | Lipid/MC3 AUC [1]: 0.13

PDI [2, 4]: 0.110
SMILES: CCCCCCCCCN(CCCCCCCCC)CCN(CCCCCCCCC)CCN1CCNCC1 [Compound 36, N^1,N^1,N^2-Trinonyl-N^2-(2-(piperazin-1-yl)ethyl)ethane-1,2-diamine]

PDI [2, 3]: 0.160
SMILES: CCCCCCCCCCCCCCN(CCCCCCCCCCCCCC)CCN(CCCCCCCCCCCCCC)CCN1CCN(CCN(CCCCCCCCCCCCCC)CCCCCCCCCCCCCC)CC1 [Compound 32, N^1-(2-(4-(2-(Ditetradecylamino)ethyl)piperazin-1-yl)ethyl)-N^1,N^2,N^2 tritetradecylethane-1,2-diamine]

PDI ([2]; Table 20-1): 0.170
SMILES: CCCCCCCCCCCCN(CCO)CCN(CCCCCCCCCCCC)CCCCCC(=O)OCCCCCCC [Compound 20-7, Heptyl 6-(dodecyl(2-(dodecyl(2-hydroxyethyl)amino)ethyl)amino)hexanoate]

PDI ([2]; formulated with hEPO mRNA): 0.120
SMILES: CCCCCCCCCCCCN(CCCCCCCCCCCC)CCN(CCCCCCCCCCCC)CCN1CCN(CCN(CCCCCCCCCCCC)CCCCCCCCCCCC(=O)OC)CC1 [Compound 15, Methyl 12-((2-(4-(2-((2-(didodecylamino)ethyl)(dodecyl)amino)ethyl)piperazin-1-yl)ethyl)(dodecyl)amino)dodecanoate]

PDI [2, 3]: 0.080
SMILES: CCCCCCCCCCCCCCN(CCCCCCCCCCCCCC)CCN(CCCCCCCCCCCCCC)CCN1CCN(CCN(CCCCCCCCCCCC)CCCCCC(=O)OCCCCC)CC1 [Compound 13, Pentyl 6-((2-(4-(2-((2-(ditetradecylamino)ethyl)(tetradecyl)amino)ethyl)piperazin-1-yl)ethyl)(dodecyl)amino)hexanoate]

PDI ([2]; Table 20-1): 0.220
SMILES: CCCCCCCCCN(CCCCCCCCC)CCN(CCO)CCCCCC(=O)OCCCCC [Compound 20-6, Pentyl 6-((2-(dinonylamino)ethyl)(2-hydroxyethyl)amino)hexanoate]

PDI ([2]; Table 20-1): 0.130
SMILES: CCCCCCCCCCCCN(CCO)CCN(CCCCCCCCCCCC)CCCCCC(=O)OCCCCC [Compound 20-2, Pentyl 6-(dodecyl(2-(dodecyl(2-hydroxyethyl)amino)ethyl)amino)hexanoate]

PDI [2, 3]: 0.099
SMILES: CCCCCCCC/C=C\CCCCCCCCN(CCCCCCCC/C=C\CCCCCCCC)CCN1CCN(CCN(CCCCCCCCCCCC)CCN(CCCCCCCCCCCC)CCCCCCCCCCCC)CC1 [Compound 28, N^1-(2-(4-(2-(Di((Z)-octadec-9-en-1-yl)amino)ethyl)piperazin-1-yl)ethyl)-N^1,N^2,N^2-tridodecylethane-1,2-diamine]

PDI ([2]; Table 20-1): 0.057
SMILES: CCCCC/C=C\C/C=C\CCCCCCCCN(CCCCCCCC/C=C\C/C=C\CCCCC)CCN(CCO)CCCCCCCCCCCC [Compound 20-13, 2-((2-(Di((9Z,12Z)-octadeca-9,12-dien-1-yl)amino)ethyl)(dodecyl)amino)ethan-1-ol]
